Calls of active or inactive are those of the source.
How the values were obtained:
cells [1] = test: cells
[2] = A Cell Based Secondary Assay To Explore Cytotoxicity of Compounds that Sensitize Mycobacterium Tuberculosis to Beta-Lactam Antibiotics.; type: functional
[3] = target: T1, Oxysterols receptor LXR-beta (Homo sapiens, UniProt P55055); type: functional, cell-based
T1 sequence (P55055 whole entry): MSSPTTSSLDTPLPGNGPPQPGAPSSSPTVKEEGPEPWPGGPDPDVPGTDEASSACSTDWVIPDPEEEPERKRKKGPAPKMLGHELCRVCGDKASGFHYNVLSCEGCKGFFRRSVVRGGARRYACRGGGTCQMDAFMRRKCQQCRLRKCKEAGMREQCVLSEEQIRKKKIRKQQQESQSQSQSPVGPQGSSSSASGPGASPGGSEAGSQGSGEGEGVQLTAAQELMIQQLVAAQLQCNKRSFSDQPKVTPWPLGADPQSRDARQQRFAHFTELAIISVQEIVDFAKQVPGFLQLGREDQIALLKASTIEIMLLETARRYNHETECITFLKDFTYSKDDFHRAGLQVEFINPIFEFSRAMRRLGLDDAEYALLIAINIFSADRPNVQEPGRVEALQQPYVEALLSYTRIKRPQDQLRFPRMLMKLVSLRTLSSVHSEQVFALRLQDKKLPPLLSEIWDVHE

[4] = target: Voltage-gated inwardly rectifying potassium channel KCNH2 (Homo sapiens, UniProt Q12809); test: hERG protection from proarrhythmic block, potency, dose response, cell-based, thallium flux (AID 2121); type: ADME
Sequence of Voltage-gated inwardly rectifying potassium channel KCNH2 (Q12809 whole entry): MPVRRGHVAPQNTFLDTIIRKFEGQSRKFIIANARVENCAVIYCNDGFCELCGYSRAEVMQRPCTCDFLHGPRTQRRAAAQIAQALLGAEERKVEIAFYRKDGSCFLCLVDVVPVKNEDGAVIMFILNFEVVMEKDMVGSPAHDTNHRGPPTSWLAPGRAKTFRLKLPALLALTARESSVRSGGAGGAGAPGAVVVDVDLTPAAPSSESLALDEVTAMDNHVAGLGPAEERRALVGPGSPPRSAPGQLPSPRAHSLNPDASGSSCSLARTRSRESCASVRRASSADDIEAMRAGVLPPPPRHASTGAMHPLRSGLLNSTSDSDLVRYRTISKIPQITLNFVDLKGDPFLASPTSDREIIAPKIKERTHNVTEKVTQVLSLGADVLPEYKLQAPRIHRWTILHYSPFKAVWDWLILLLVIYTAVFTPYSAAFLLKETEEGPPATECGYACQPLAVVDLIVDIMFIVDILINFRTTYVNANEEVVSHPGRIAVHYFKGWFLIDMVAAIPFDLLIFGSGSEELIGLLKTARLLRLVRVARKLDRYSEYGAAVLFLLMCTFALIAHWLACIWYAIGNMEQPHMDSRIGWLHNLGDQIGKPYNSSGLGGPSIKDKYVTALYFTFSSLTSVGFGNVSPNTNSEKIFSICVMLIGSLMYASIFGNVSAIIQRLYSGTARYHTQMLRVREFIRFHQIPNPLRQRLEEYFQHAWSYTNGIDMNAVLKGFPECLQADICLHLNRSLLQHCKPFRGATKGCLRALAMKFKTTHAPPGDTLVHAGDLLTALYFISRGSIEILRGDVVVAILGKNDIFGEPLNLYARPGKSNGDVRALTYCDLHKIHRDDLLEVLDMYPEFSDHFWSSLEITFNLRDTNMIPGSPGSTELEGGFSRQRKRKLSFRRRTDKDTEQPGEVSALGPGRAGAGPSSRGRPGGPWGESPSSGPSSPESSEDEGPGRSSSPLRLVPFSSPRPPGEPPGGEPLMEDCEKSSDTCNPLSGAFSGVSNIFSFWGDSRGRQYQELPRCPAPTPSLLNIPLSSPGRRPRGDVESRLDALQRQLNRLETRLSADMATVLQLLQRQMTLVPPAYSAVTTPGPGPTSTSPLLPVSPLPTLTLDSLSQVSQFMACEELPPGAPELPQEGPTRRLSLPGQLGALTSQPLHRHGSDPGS

[5] = cytotoxicity in HPDE-C7 cells, cell-based, fluorescence, HTS (AID 430); type: functional; conditions: Homo sapiens
[6] = target: Heat shock protein HSP 90-alpha (Homo sapiens, UniProt P07900); type: functional, organism-based
[7] = target: Mitogen-activated protein kinase 10 (Homo sapiens, UniProt P53779); test: Dose response biochemical screening assay for inhibitors of c-Jun N-Terminal Kinase 3 (JNK3). [Related pubchem assays: 746 ]
Sequence of Mitogen-activated protein kinase 10 (P53779 whole entry): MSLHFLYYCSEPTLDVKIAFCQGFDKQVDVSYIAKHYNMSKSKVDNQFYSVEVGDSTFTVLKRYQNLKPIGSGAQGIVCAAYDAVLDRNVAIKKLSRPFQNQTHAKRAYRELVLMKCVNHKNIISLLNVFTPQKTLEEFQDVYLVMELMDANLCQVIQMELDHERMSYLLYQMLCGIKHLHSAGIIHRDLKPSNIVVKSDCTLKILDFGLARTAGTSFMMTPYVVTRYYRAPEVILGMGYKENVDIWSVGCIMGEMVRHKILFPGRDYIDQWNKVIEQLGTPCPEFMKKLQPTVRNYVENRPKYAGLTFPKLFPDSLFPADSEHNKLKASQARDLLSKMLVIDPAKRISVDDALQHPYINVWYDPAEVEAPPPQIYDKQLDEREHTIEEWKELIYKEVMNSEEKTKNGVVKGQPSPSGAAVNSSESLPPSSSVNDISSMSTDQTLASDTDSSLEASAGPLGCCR

[8] = target: FAD-linked sulfhydryl oxidase ALR (Homo sapiens, UniProt P55789); test: inhibitors of human ALR sulfhydryl oxidase, dose response, biochemical, H2O2 detection, luminescence, cherry-pick (AID 493248)
Sequence of FAD-linked sulfhydryl oxidase ALR (P55789 whole entry): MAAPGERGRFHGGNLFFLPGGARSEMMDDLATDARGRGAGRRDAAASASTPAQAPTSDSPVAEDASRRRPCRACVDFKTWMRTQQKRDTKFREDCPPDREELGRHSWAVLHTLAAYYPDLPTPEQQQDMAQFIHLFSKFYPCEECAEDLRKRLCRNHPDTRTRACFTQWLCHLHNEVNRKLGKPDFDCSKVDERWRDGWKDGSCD

[9] = cytotoxicity in KRAS-transformed pancreatic duct cells, primary screen, cell-based, fluorescence, HTS (AID 431); type: functional; conditions: Homo sapiens;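 also: cell line used: HPDE-C7K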
cells [10] = type: functional, cell-based
cells [11] = type: functional, cell-based; remark: listed apart in the source
[12] = target: T1, Oxysterols receptor LXR-beta; type: functional, cell-based; remark: listed apart in the source
Prothrombin = Prothrombin (Homo sapiens, UniProt P00734); test: Thrombin 1536 HTS Dose Response Confirmation. [Related pubchem assays: 1046 (Thrombin 1536 HTS; hits were confirmed in this assay)]; type: functional
[13] = M. tuberculosis H37Rv growth inhibitors, H37Rv strain (AID 1626); type: functional
Vero = test: host cell cytotoxicity of antiviral hits, dose response, cytotoxicity control for West Nile virus antiviral project, secondary assay (AID 1650); type: functional; conditions: Chlorocebus sabaeus
[14] = target: T2, Corticotropin-releasing factor receptor 2/Corticotropin-releasing factor-binding protein (Homo sapiens, UniProt P24387+Q13324); test: activators of CRF receptor 2 with binding protein – uHTS hits, confirmation (AID 602473); type: functional; conditions: read-out: EC50_Mean
T2 sequence (Q13324 whole entry): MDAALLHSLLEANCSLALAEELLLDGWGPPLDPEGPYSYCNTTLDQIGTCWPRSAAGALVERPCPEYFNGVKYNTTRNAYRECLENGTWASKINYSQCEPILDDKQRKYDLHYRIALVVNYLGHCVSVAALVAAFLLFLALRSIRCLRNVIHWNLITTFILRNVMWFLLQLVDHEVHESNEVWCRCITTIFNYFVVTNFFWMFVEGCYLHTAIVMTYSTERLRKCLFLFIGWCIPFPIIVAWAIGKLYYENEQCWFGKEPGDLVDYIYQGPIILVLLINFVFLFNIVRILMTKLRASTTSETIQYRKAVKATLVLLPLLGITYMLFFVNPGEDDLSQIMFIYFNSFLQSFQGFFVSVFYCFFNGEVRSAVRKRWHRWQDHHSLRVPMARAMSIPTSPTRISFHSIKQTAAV
T2 sequence (P24387 whole entry): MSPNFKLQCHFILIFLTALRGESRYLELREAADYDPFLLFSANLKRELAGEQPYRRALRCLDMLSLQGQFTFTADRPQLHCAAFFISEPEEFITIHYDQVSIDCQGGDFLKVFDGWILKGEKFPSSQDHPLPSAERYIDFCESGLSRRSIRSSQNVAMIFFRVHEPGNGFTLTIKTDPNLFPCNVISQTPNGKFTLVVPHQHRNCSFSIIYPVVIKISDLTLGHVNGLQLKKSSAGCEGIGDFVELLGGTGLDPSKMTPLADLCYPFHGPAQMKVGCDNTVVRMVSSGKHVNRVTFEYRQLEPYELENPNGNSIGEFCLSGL

[15] = target: T2, Corticotropin-releasing factor receptor 2/Corticotropin-releasing factor-binding protein; test: Dose Response confirmation of uHTS hits for small molecule antagonists of the CRF-binding protein and CRF-R2 receptor complex.; type: functional; conditions: read-out: IC50_Mean
[16] = target: T1, Oxysterols receptor LXR-beta; test: LXR agonists, Gal4 luciferase reporter, dose response, counter-screen for ssDAF-12 agonist project, cell-based, luminescence, HEK293, S. stercoralis campaign (AID 720737); type: functional; conditions: read-out: IC50 (the source's name)
[17] = Luminescence-based cell-based high throughput dose response assay to identify activators of the DAF-12 from the parasite S. stercoralis (ssDAF-12).; type: functional
Kallikrein-7 = Kallikrein-7 (Homo sapiens, UniProt P49862); test: Fluorescence Intensity-based biochemical primary high throughput dose response assay to identify activators of kallikrein-7 (K7) zymogen.
Sequence of Kallikrein-7 (P49862 whole entry): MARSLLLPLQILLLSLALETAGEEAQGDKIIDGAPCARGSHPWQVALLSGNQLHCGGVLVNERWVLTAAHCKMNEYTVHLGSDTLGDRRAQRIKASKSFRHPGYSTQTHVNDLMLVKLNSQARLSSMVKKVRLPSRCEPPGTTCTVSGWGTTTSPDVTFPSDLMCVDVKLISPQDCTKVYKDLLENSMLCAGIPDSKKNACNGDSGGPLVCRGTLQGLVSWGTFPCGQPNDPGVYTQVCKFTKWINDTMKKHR

HT-1080 = test: cytotoxicity in HT1080 fibrosarcoma cells, cell-based, fluorescence readout (AID 620); type: functional; conditions: Homo sapiens
[18] = target: Luciferin 4-monooxygenase (Photinus pyralis, UniProt P08659); test: Counter Screen for Luciferase-based Assay Positives. [Related pubchem assays: 620, 618, 411 ]
Sequence of Luciferin 4-monooxygenase (P08659 whole entry): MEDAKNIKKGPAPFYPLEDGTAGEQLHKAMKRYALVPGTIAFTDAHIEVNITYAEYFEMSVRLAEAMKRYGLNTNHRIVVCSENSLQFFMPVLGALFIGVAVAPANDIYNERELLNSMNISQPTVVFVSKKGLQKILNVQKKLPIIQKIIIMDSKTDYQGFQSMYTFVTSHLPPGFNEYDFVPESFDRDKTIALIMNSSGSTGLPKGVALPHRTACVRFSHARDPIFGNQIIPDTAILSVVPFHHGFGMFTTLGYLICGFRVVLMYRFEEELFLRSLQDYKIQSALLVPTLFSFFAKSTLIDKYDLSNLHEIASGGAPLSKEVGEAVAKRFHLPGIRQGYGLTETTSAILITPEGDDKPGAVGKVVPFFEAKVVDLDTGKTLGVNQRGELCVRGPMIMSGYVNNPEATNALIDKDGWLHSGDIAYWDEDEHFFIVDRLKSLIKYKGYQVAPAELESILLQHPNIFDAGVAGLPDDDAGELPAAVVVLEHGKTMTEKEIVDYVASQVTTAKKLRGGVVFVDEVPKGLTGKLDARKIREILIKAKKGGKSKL

Paired box protein Pax-8 = Paired box protein Pax-8 (Homo sapiens, UniProt Q06710); test: inhibitors of PAX8-driven TPO luciferase reporter, dose response, RMG-I cells, cherry-pick (AID 687027); type: functional, cell-based;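 also: luciferase reporter driven by Pax8 target thyroperoxidase promoter measured by SteadyGlo luminescence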
Sequence of Paired box protein Pax-8 (Q06710 whole entry): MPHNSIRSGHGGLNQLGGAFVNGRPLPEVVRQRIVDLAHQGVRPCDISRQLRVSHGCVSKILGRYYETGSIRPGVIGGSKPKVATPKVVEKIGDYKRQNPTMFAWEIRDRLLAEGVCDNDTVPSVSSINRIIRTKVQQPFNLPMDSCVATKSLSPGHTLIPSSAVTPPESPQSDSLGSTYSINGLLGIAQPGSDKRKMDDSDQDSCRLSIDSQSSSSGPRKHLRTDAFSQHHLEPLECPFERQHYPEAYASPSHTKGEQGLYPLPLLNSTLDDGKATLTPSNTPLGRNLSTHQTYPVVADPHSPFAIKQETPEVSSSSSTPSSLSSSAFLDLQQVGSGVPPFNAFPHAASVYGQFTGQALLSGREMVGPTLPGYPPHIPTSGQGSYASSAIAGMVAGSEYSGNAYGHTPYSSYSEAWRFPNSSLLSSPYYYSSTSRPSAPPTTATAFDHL

[19] = A2780 ovarian cancer cell cytotoxicity, dose response, cytotoxicity control, plate reader, dry powder samples (AID 743046); type: functional, cell-based
[20] = cytotoxicity in OVCAR8 ovarian cancer cells, dose response, PAX8 project, cell-based, plate reader, dry powder samples (AID 743197); type: functional; conditions: OVCAR-8
[21] = NIH:OVCAR-3 ovarian cancer cell cytotoxicity, dose response, PAX8 inhibitor project, plate reader, dry powder samples (AID 743044); type: functional, cell-based
HeLa = test: HeLa cell cytotoxicity, dose response, cytotoxicity control, ATP luminescence, cherry-pick samples (AID 687004); type: functional, cell-based; conditions: Homo sapiens
[22] = HEK293 Cytotoxicity Assay Measured in Cell-Based System Using Plate Reader - 7071-01_Inhibitor_Dose_CherryPick_Activity_Set2.; type: functional
HEK293 = test: HEK293T cell cytotoxicity, dose response, cytotoxicity control, ATP luminescence, cherry-pick samples (AID 687005); type: functional, cell-based; conditions: Homo sapiens;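 also: cells exposed to compound for 48 hours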
Vasopressin V1b receptor = Vasopressin V1b receptor (Homo sapiens, UniProt P47901); test: Late-stage results from the probe development effort to identify antagonists of arginine vasopressin receptor 1a (AVPR1a): fluorescence-based cell-based dose response AVPR1b inhibition counterscreen assay.; type: functional
Sequence of Vasopressin V1b receptor (P47901 whole entry): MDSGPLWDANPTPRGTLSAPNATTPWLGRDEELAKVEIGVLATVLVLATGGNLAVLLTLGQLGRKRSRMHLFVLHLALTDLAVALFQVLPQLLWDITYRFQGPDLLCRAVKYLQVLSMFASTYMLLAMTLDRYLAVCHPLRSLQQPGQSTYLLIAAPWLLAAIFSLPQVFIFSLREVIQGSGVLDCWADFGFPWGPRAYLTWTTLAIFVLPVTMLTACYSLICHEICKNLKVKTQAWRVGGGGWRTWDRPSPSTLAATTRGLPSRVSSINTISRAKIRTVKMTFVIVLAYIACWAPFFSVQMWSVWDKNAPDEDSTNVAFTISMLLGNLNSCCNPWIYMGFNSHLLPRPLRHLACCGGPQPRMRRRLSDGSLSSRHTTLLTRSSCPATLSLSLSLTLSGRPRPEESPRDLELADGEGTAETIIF

[23] = Late-stage results from the probe development effort to identify antagonists of arginine vasopressin receptor 1a (AVPR1a): fluorescence-based cell-based dose response OXTR inhibition counterscreen assay.; type: functional
[24] = Late-stage results from the probe development effort to identify antagonists of arginine vasopressin receptor 1a (AVPR1a): fluorescence-based cell-based dose response AVPR1a inhibition assay.; type: functional
Vasopressin V2 receptor = Vasopressin V2 receptor (Homo sapiens, UniProt P30518); test: Late-stage results from the probe development effort to identify antagonists of arginine vasopressin receptor 1a (AVPR1a): fluorescence-based cell-based dose response AVPR2 inhibition counterscreen assay.; type: functional
Sequence of Vasopressin V2 receptor (P30518 whole entry): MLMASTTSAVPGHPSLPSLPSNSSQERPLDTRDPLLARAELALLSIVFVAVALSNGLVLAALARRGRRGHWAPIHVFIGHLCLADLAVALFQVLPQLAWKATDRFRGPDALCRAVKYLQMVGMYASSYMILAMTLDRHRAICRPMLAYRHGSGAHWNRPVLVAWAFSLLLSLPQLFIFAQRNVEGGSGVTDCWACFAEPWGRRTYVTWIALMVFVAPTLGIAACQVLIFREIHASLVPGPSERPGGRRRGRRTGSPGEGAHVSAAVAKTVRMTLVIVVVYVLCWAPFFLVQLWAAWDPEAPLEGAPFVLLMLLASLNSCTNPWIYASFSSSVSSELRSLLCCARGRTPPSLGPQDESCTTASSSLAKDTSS

[25] = MITF Orthogonal Assay: SK-MEL-5 CTG Assay Measured in Cell-Based System Using Plate Reader - 2084-02_Inhibitor_Dose_DryPowder_Activity_Set7.; type: functional
[26] = TRPM1 promoter luciferase reporter signal decrease, dose response, MITF inhibitor project, cell-based, SK-MEL-5, dry powder, set 8 (AID 624430); type: functional
[27] = MITF: Counter assay: A375 proliferation Measured in Cell-Based System Using Plate Reader - 2084-03_Inhibitor_Dose_DryPowder_Activity_Set8.; type: functional; conditions: A-375
[28] = growth suppression of PTEN-null colon cells, dose response, cell-based, HCT116 PTEN knockout (AID 1047); type: functional;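 also: HCT116 colon tumor cells with PTEN knocked out; cells exposed to compound for 60 hours before readout; potency for loss of cell viability measured by luminescence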
[29] = growth suppression of beta-catenin-knockout colon cells, dose response, cell-based, HCT116, human colon tumor (AID 1045); type: functional;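 also: HCT116 colon tumor cells with beta catenin knocked out; cells exposed to compound for 60 hours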
[30] = P. falciparum Dd2 growth inhibitors, dose response, SYBR Green, dry powder samples, set 9 (AID 1159568); type: functional, cell-based

## Nc1c2c(nc3sc4c(c13)CCCC4)-c1ccccc1CC2
Cells [1]
  EC50: > 67.5 µM (inactive)
[2]
  CC50: > 40 µM (active)
[3]
  EC50: > 67.5 µM (inactive)

## O=C(COc1ccccc1Cl)NC(=S)Nc1ccccc1N1CCCC1
[4]
  EC50: 1.56 µM (active)

## Clc1ccc2[nH]c3c(c2c1)CCc1c[nH]nc1-3
[5]
  EC50: 15 µM (active)
[6]
  AC50: 7.8 µM (active)
[7]
  IC50: 2.16 µM (active)
[8]
  AC50: 0.129 µM (active)
[9]
  EC50: 18.1 µM (active)

## CC(=O)Nc1cccc(-c2nc3ccccc3c(=O)o2)c1
[7]
  IC50: 41.9 µM (not active)

## O=C(NCCCn1ccnc1)c1cc(-c2ccccc2)on1
Cells [10]
  EC50: > 350 µM (not active)
Cells [11]
  EC50: 8.67 µM (active)
[12]
  EC50: > 67.5 µM (inactive)

## COc1ccc2ncc(OC(C)=O)cc2c1
Prothrombin
  IC50: 3.24 µM (active)
[13]
  IC50: > 100 µM (active)

## COC(=O)C1C(c2ccccc2)C(C(=O)OCc2ccco2)C1c1ccccc1 (stereo not given)
Vero
  CC50: 30.1 µM (active)
[14]
  EC50: > 53 µM (inactive)
[15]
  IC50: > 47.1 µM (inactive)

## COc1ccc(Nc2nc(N)nc(CSC(=S)N3CCN(C)CC3)n2)cc1
[16]
  EC50: > 67.6 µM (inactive)
[17]
  IC50: > 67.6 µM (inactive)

## Cc1cccc(C(=O)/N=c2/c(C#N)cc3c(=O)n4cccc(C)c4nc3n2Cc2ccco2)c1
Kallikrein-7
  EC50: 65.6 µM (inactive)

## Cc1cc(O)ccc1Nc1cc(-c2cccc(N(C)C)c2)ncn1
[12]
  EC50: > 67.5 µM (inactive)

## Cc1ccc(-c2nc3cc(C)ccc3o2)cc1
HT-1080
  EC50: > 50 µM (not active)
Cells [1]
  EC50: > 67.5 µM (inactive)
[18]
  EC50: 1.59 µM (active)
[3]
  EC50: > 67.5 µM (inactive)

## Cc1noc(C)c1S(=O)(=O)N(C)C[C@H]1OCCCC[C@@H](C)Oc2ccc(NS(=O)(=O)c3ccc(Cl)cc3)cc2C(=O)N([C@@H](C)CO)C[C@H]1C
Paired box protein Pax-8
  AC50: 10.9 µM (active)
[19]
  AC50: < 0.26 µM (active)

## C[C@@H]1CCCCO[C@@H](CN(C)Cc2ccc(C(F)(F)F)cc2)[C@H](C)CN([C@H](C)CO)C(=O)c2cc(NC(=O)Nc3ccccc3)ccc2O1
Paired box protein Pax-8
  AC50: 4.86 µM (active)
[19]
  AC50: 57 µM (active)
[20]
  AC50: 36 µM (active)
[21]
  AC50: 28.1 µM (active)

## C[C@@H]1CN([C@@H](C)CO)C(=O)c2cc(NS(=O)(=O)c3ccc(F)cc3)ccc2O[C@@H](C)CCCCO[C@H]1CN(C)S(=O)(=O)c1ccc(F)cc1
HeLa
  AC50: > 52 µM (inactive)
[22]
  AC50: 22.5 µM (active)
HEK293
  AC50: 22.5 µM (active)

## C[C@@H]1CN([C@H](C)CO)C(=O)c2cc(NC(=O)Cc3ccccc3)ccc2O[C@@H](C)CCCCO[C@@H]1CN(C)Cc1ccc(C(F)(F)F)cc1
Paired box protein Pax-8
  AC50: 7.22 µM (active)
[20]
  AC50: 43.2 µM (active)
[21]
  AC50: 17.5 µM (active)

## N#Cc1cccnc1N1CCN(C(=O)N(CC2CC2)c2ccc(Cl)cc2)CC1
Vasopressin V1b receptor
  IC50: > 50 µM (inactive)
[23]
  IC50: > 50 µM (inactive)
[24]
  IC50: 0.0806 µM (active)
Vasopressin V2 receptor
  IC50: > 50 µM (inactive)

## O=C1C=C(Nc2cc(Cl)cc(Cl)c2)C(=O)c2ccccc21
[25]
  AC50: 1.12 µM (active)
[26]
  AC50: 23.9 µM (active)
[27]
  AC50: 24 µM (active)

## Cc1cccnc1N1CCC(C(=O)N(CC2CC2)c2ccc(Cl)cc2)CC1
Vasopressin V1b receptor
  IC50: 12.6 µM (inactive)
[23]
  IC50: 2.6 µM (active)
[24]
  IC50: 0.0075 µM (active)
Vasopressin V2 receptor
  IC50: 15.7 µM (inactive)

## C=CCn1/c(=N/C(=O)c2ccc(S(=O)(=O)N3CCc4ccccc4C3)cc2)sc2cc(S(N)(=O)=O)ccc21
[28]
  EC50: 5.77 µM (active)
[29]
  EC50: 4.56 µM (active)
Kallikrein-7
  EC50: > 69.5 µM (inactive)

## COc1ccc(/N=C2/C(=O)N3CCCc4cccc2c43)cc1
Cells [10]
  EC50: > 350 µM (not active)
[13]
  IC50: > 100 µM (active)
Cells [11]
  EC50: > 350 µM (not active)

## COc1ccccc1-c1ccc2c(c1)[C@@H]1[C@@H](CCN1C(=O)C1CCC1)[C@H](CO)N2
[30]
  AC50: 2.92 µM (active)

## CCCNC(=O)N1[C@H](C#N)[C@H](c2ccccc2C2=CCCCC2)[C@@H]1CO
[30]
  AC50: 7.06 µM (active)

## O=C1C(Nc2ccc(I)cc2)=C(N2CCCCC2)C(=O)c2ccccc21
[25]
  AC50: 15.9 µM (active)
[26]
  AC50: 9.62 µM (active)
[27]
  AC50: > 70 µM (inactive)

— ChEMBL document CHEMBL1201862, “PubChem BioAssay data set” (2004)
